Structures are written as SMILES.

Data on 1 compound can be found in US10960018B2, “Methods and compounds for stimulating read-through of premature termination codons” (The UAB Research Foundation, priority 2016, dated 2021).

Format in all cases: cell-based, Rat
The test system of one assay is FRT W1282X cells. Briefly: Transepithelial chloride conductance assay in FRT W1282X cells. Particulars: 48 hours; escin 10 μM, VX-809 3 μM, GP-5 10 μM, C1+C2 10 μM. The procedure: Stably transfected FRT cells as described herein cells were seeded onto Costar 24-well […] permeable supports at a density of ˜2×10^6 cells/filter and maintained at 37° C. with 5% CO2. Transepithelial resistance was assessed using an epithelial voltmeter to ensure the formation of tight monolayers, as defined by resistance >6 kcm^2. During initial evaluation of agents, cells were treated with compounds (10 μM), vehicle control (0.3% DMSO), or positive control (250 μg/mL G418) for 48 hours before transepithelial conductance (Gt) was assessed; subsequent studies used other concentrations of compounds. Measurements were taken at baseline, after the addition of 20 μM forskolin (FSK, a cAMP agonist that stimulates CFTR activity) and 10 μM CFTRInh-172 (a CFTR-specific inhibitor).
Individual assays were performed as described herein.
As previously reported in the literature, the combination of CFTR correctors (such as VX-809) and CFTR potentiators (such as VX-770) act synergistically to improve CFTR function. […] Compounds alone or in the indicated combination were pre-incubated with FRT W1282X cells for 48 hours. During the assay the baseline conductance (Gt) was initially determined prior to the acute addition of forskolin (20 μM) and VX-770 (10 μM) to stimulate CFTR activity; the CFTR inhibitor, CFTRInh-172 (10 μM), was added to inhibit CFTR activity at the end of the assay. Enhancement of PTC read-through by the compounds of the present disclosure was determined by an increase in CFTR conductance. CFTR conductance also indicated the CFTR was functional as a result of the read-through of the PTC.
Compounds alone or in the indicated combination were pre-incubated with FRT G542X cells for 48 hours. […] Enhancement of PTC read-through by the compounds of the present disclosure was determined by an increase in CFTR conductance. CFTR conductance also indicated the CFTR was functional as a result of the read-through of the PTC.
It has been reported that aminoglycosides interfere with the action read-through stimulating compound. […] CFTR conductance also indicated the CFTR was functional as a result of the read-through of the PTC.
Stimulation of CFTR activity was determined by an increase in CFTR conductance. […] During the assay the baseline conductance (Gt) was initially determined prior to the acute addition of forskolin (20 μM) and GP-5 (10 μM) to stimulate CFTR activity; the CFTR inhibitor, […] (10 μM), was added to inhibit CFTR activity at the end of the assay.
The effect of the read-through stimulating compounds of the present disclosure in combination with the CFTR corrector VX-809 was further examined in FRT cells with the G542X, Y122X and W1282X mutations. […] CFTR conductance also indicated the CFTR was functional as a result of the read-through of the PTC.

The test system of the next assay is FRT W1282X^HRP cells. The assay can be described thus: HRP CFTR expression assay, W1282X. The following applies: 48 hours; escin 10 μM, VX-809 3 μM. The procedure:
(§1) To measure cell surface expression of CFTR, FRT cells expressing the fusion protein of G542X CFTR and HRP were treated with 10 μM of lead compounds for 48 hours at 37° C. and 5% CO2. Holding DMSO concentration at 0.3%, FRT cells were washed 4 times in PBS supplemented with 1 mM MgCl2 and 0.1 mM CaCl2 and then incubated with the HRP substrate (Fisher, #PI-34096, 15 μl/well) at room temperature for 10 minutes. The luminescent HRP signal was analyzed via a Synergy NEO microplate reader (BioTek Instruments).
(§2) The effect of the read-through stimulating compounds of the present disclosure in combination with the CFTR corrector VX-809 was further examined in FRT cells with the G542X, Y122X and W1282X mutations. Enhancement of PTC read-through by the compounds of the present disclosure was determined by an increase in CFTR conductance (FIGS. 13A-13C) or an increase in CFTR protein expression at the cell surface (FIGS. 14A-14C). CFTR conductance also indicated the CFTR was functional as a result of the read-through of the PTC.

The next assay relates to FRT Y122X^HRP cells. Briefly: HRP CFTR expression assay, Y122X. The following applies: 48 hours; escin 10 μM, VX-809 3 μM. The method, then: as §1, §2

`Cc1ccc(NC(=O)C2(c3ccc4c(c3)OC(F)(F)O4)CC2)nc1-c1cccc(C(=O)O)c1` [VX-809]: in the assay with FRT W1282X cells, the “CFTR stimulation (conductance) in the presence of forskolin and GP-5” value is listed as “varying stimulatory effects”. The “CFTR protein expression at the cell surface” value in the assay on FRT W1282X^HRP cells and with FRT Y122X^HRP cells was “significant stimulatory effects” each time.
